# Source: publication PMC3070406 (The Pediatric infectious disease journal, 2011)
# “And” between values parts separate entries of the source, which are not always exact repeats. Equal values may be shown once.
# Legend:
# influenza infection = tested on: influenza infection; parameters: species or system human; conditions: in vivo, po
# [1] = tested on: NA of influenza A and B virus isolates; format: biochemical, influenza A and B viruses
Structure (SMILES),duration of symptoms after commencing antiviral treatment (mean) (influenza infection),Susceptibility to zanamivir [1]
CCOC(=O)C1=C[C@@H](OC(CC)CC)[C@H](NC(C)=O)[C@@H](N)C1 [oseltamivir],33.0 ± 8.3 days and 26 ± 17.9 days,
CC(=O)N[C@H]1[C@H]([C@H](O)[C@H](O)CO)OC(C(=O)O)=C[C@@H]1N=C(N)N [zanamivir],,susceptible
